Values after ≈ are worked out from the molar mass of the structure shown. Active and inactive are the calls of the source. The rule behind the calls is not given here.
Experiments:
Alpha amylase = molecular target: T1, Alpha amylase (Homo sapiens, UniProt P0DUB6); test: Inhibition of Alpha-amylase (unknown origin); format: protein assay
T1 sequence (P0DUB6 whole entry): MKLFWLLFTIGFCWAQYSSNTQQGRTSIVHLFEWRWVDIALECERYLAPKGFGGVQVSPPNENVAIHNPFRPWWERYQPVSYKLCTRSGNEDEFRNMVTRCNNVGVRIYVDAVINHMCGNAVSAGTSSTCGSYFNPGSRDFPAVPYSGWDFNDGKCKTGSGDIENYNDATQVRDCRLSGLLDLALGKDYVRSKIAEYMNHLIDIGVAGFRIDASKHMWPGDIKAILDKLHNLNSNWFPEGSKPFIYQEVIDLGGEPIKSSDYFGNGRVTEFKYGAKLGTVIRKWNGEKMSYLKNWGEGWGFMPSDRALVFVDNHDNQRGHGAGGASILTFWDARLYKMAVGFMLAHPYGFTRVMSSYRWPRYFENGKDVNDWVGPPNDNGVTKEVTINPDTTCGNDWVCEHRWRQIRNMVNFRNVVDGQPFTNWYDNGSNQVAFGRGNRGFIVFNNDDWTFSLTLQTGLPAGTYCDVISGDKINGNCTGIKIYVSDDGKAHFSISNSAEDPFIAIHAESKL

[1] = Antioxidant activity assessed as DPPH radical scavenging activity; format: functional
Rattus norvegicus [2] = test: Antidiabetic activity against streptozotocin-induced Wistar rat assessed as decrease in SOD level at 10 mg/kg, po measured upto 35 days; format: functional, organism-based; conditions: time <= 35.0 day
Rattus norvegicus [3] = test: Antidiabetic activity against streptozotocin-induced Wistar rat assessed as increase in serum amylase level at 10 mg/kg, po measured upto 35 days by ELISA analysis; format: functional, organism-based; conditions: time <= 35.0 day
[4] = Toxicity in Wistar rat assessed as decrease in body weight at 10 mg/kg, po measured on day 14; format: organism-based; conditions: in vivo, 336 h, time 14 day
Rattus norvegicus [5] = test: Antidiabetic activity against streptozotocin-induced Wistar rat assessed as change in serum SGOT level at 10 mg/kg, po measured upto 35 days; format: functional, organism-based; conditions: time <= 35.0 day
Rattus norvegicus [6] = test: Antidiabetic activity against Wistar rat assessed as increase in serum creatine level at 10 mg/kg, po measured upto 35 days; format: functional, organism-based; conditions: time <= 35.0 day
[7] = Toxicity in streptozotocin-induced Wistar rat assessed as morphological changes in pancrease at 10 mg/kg, po measured up to 35 days; format: organism-based; conditions: in vivo, 840 h, time < 35 day
Rattus norvegicus [8] = test: Antidiabetic activity against Wistar rat assessed as effect on glutathione level at 10 mg/kg, po measured upto 35 days; format: functional, organism-based; conditions: time <= 35.0 day
Rattus norvegicus [9] = test: Antidiabetic activity against streptozotocin-induced Wistar rat assessed as effect on blood glucose level at 10 mg/kg, po measured on day 1; format: functional, organism-based; conditions: time 1.0 day
[10] = Toxicity in streptozotocin-induced Wistar rat assessed as decrease in eosinophil count at 10 mg/kg, po measured up to 35 days; format: organism-based; conditions: in vivo, 840 h, time < 35 day
PANC-1 [11] = test: Induction of ROS production in high glucose-induced human PANC-1 cells assessed as maximum fluorescence intensity at 10 uM incubated for 30 mins DCFDA-staining based flow cytometry analysis (reference value: 15.09); format: functional; conditions: 0.5 h
Rattus norvegicus [12] = test: Antidiabetic activity against streptozotocin-induced Wistar rat assessed as decrease in HDL level at 10 mg/kg, po measured upto 35 days; format: functional, organism-based; conditions: time <= 35.0 day
Rattus norvegicus [13] = test: Antidiabetic activity against streptozotocin-induced Wistar rat assessed as decrease in blood glucose level at 10 mg/kg, po measured at 60 mins by oral glucose test; format: functional, organism-based
[14] = Toxicity in streptozotocin-induced Wistar rat assessed as decrease in tubular necrosis in kidney at 10 mg/kg, po measured up to 35 days; format: organism-based; conditions: in vivo, 840 h, time < 35 day
Rattus norvegicus [15] = test: Antidiabetic activity against streptozotocin-induced Wistar rat assessed as decrease in blood glucose level at 10 mg/kg, po measured at 30 mins by oral glucose test; format: functional, organism-based
[16] = Toxicity in streptozotocin-induced Wistar rat assessed as decrease in basophil count at 10 mg/kg, po measured up to 35 days; format: organism-based; conditions: in vivo, 840 h, time < 35 day
Rattus norvegicus [17] = test: Antidiabetic activity against streptozotocin-induced Wistar rat assessed as increase in TNF-alpha level in Pancreas at 10 mg/kg, po measured upto 35 days; format: functional, organism-based; conditions: time <= 35.0 day
Alpha-amylase = molecular target: T2, Alpha-amylase (Sus scrofa domesticus, UniProt Q7M328); test: Inhibition of porcine pancreatic Alpha-amylase using starch as substrate preincubated for 10 mins followed by substrate addition and measured after 15 mins by Bio-rad microplate reader analysis; conditions: read-out: IC50
T2 sequence (Q7M328 whole entry): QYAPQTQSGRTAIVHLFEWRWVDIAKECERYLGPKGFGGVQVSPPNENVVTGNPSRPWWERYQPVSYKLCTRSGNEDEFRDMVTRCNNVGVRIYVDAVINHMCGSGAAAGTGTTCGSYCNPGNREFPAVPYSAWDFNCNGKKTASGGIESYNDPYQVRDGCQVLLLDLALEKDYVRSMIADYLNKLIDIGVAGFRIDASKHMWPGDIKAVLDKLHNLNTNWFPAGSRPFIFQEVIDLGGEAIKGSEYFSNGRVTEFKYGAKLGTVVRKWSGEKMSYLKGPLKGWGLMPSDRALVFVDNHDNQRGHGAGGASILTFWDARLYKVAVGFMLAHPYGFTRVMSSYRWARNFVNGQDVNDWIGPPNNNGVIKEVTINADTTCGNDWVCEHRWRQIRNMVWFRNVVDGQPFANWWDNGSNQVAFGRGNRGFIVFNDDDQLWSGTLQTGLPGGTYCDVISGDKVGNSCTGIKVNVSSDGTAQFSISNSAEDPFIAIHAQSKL

[18] = Toxicity in streptozotocin-induced Wistar rat assessed as decrease in dilation of renal tubules in kidney at 10 mg/kg, po measured up to 35 days; format: organism-based; conditions: in vivo, 840 h, time < 35 day
Rattus norvegicus [19] = test: Antidiabetic activity against streptozotocin-induced Wistar rat assessed as decrease in MDA level at 10 mg/kg, po measured upto 35 days; format: functional, organism-based; conditions: time <= 35.0 day
Rattus norvegicus [20] = test: Antidiabetic activity against streptozotocin-induced Wistar rat assessed as change in serum SGPT level at 10 mg/kg, po measured upto 35 days; format: functional, organism-based; conditions: time <= 35.0 day
[21] = Toxicity in streptozotocin-induced Wistar rat assessed as change in blood lymphocyte count at 10 mg/kg, po measured up to 35 days; format: organism-based; conditions: in vivo, 840 h, time < 35 day
Rattus norvegicus [22] = test: Antidiabetic activity against streptozotocin-induced Wistar rat assessed as change in blood urea nitrogen level at 10 mg/kg, po measured upto 35 days; format: functional, organism-based; conditions: time <= 35.0 day
[23] = Antioxidant activity assessed as DPPH radical scavenging activity measured for 30 mins by spectrophotometric analysis; format: functional; conditions: read-out: IC50
[24] = Toxicity in streptozotocin-induced Wistar rat assessed as changes in organ to body weight ratio at 10 mg/kg, po measured up to 35 days; format: organism-based; conditions: in vivo, 840 h, time < 35 day
Rattus norvegicus [25] = test: Antidiabetic activity against streptozotocin-induced Wistar rat assessed as effect on glutathione level at 10 mg/kg, po measured upto 35 days; format: functional, organism-based; conditions: time <= 35.0 day
Rattus norvegicus [26] = test: Antidiabetic activity against streptozotocin-induced Wistar rat assessed as increase in IL1-beta level in Pancreas at 10 mg/kg, po measured upto 35 days; format: functional, organism-based; conditions: time <= 35.0 day
Rattus norvegicus [27] = test: Antidiabetic activity against streptozotocin-induced Wistar rat assessed as increase in serum ALP level at 10 mg/kg, po measured upto 35 days; format: functional, organism-based; conditions: time <= 35.0 day
Alpha-glucosidase = Alpha-glucosidase (Saccharomyces cerevisiae S288c, UniProt P53341+P38158+P07265); test: Inhibition of yeast Alpha glucosidase 4-nitrophenyl-alpha-D-glucopyranoside incubated for 15 to 20 mins by Bio-rad microplate reader analysis; format: protein assay
Rattus norvegicus [28] = test: Antidiabetic activity against streptozotocin-induced Wistar rat assessed as decrease in triglyceride level at 10 mg/kg, po measured upto 35 days; format: functional, organism-based; conditions: time <= 35.0 day
PANC-1 [29] = test: Cytotoxicity against human PANC-1 cells assessed as inhibition of cell growth; format: functional, cell-based; conditions: Homo sapiens, PANC-1; read-out: IC50
[30] = Toxicity in streptozotocin-induced Wistar rat assessed as morphological changes in liver at 10 mg/kg, po measured up to 35 days; format: organism-based; conditions: in vivo, 840 h, time < 35 day
Rattus norvegicus [31] = test: Antidiabetic activity against streptozotocin-induced Wistar rat assessed as increase in PPAR-gamma level at 10 mg/kg, po measured upto 35 days by ELISA analysis; format: functional, organism-based; conditions: time <= 35.0 day
Rattus norvegicus [32] = test: Antidiabetic activity against streptozotocin-induced Wistar rat assessed as effect on blood glucose level at 10 mg/kg, po measured on day 4; format: functional, organism-based; conditions: time 4.0 day
[33] = Toxicity in Wistar rat assessed as decrease in body weight at 10 mg/kg, po measured on day 35; format: organism-based; conditions: in vivo, 840 h, time 35 day
[34] = Toxicity in streptozotocin-induced Wistar rat assessed as morphological changes in kidney at 10 mg/kg, po measured up to 35 days; format: organism-based; conditions: in vivo, 840 h, time < 35 day
Rattus norvegicus [35] = test: Antidiabetic activity against Wistar rat assessed as decrease in total cholesterol level at 10 mg/kg, po measured upto 35 days; format: functional, organism-based; conditions: time <= 35.0 day
Rattus norvegicus [36] = test: Antidiabetic activity against streptozotocin-induced Wistar rat assessed as change in BUN level at 10 mg/kg, po measured upto 35 days; format: functional, organism-based; conditions: time <= 35.0 day
[37] = Toxicity in streptozotocin-induced Wistar rat assessed as decrease in glomeruli shrinkage in kidney at 10 mg/kg, po measured up to 35 days; format: organism-based; conditions: in vivo, 840 h, time < 35 day
Rattus norvegicus [38] = test: Antidiabetic activity against streptozotocin-induced Wistar rat assessed as change in uric acid level at 10 mg/kg, po measured upto 35 days; format: functional, organism-based; conditions: time <= 35.0 day
Rattus norvegicus [39] = test: Antidiabetic activity against streptozotocin-induced Wistar rat assessed as effect on serum catalase level at 10 mg/kg, po measured upto 35 days; format: functional, organism-based; conditions: time <= 35.0 day
Rattus norvegicus [40] = test: Antidiabetic activity against streptozotocin-induced Wistar rat assessed as increase in serum creatine level at 10 mg/kg, po measured upto 35 days; format: functional, organism-based; conditions: time <= 35.0 day

Structure (SMILES) | Activity (Rattus norvegicus [2]) | Activity (Rattus norvegicus [3]) | Activity [4] | Activity (Rattus norvegicus [5]) | Activity (Rattus norvegicus [6]) | Activity [7] | Activity (Rattus norvegicus [8]) | Activity (Rattus norvegicus [9]) | Activity [10] | Flu intensity (PANC-1 [11]) | Activity (Rattus norvegicus [13]) | Activity (Rattus norvegicus [17]) | IC50 (Alpha-amylase) [µM] | Activity (Rattus norvegicus [20]) | IC50 [23] [µM] | Activity (Rattus norvegicus [26]) | Activity (Rattus norvegicus [27]) | IC50 (Alpha-glucosidase) [µM] | IC50 (PANC-1 [29]) [µM] | Activity (Rattus norvegicus [32]) | further results
O=C(O)CN1C(=O)S/C(=C\c2ccc3c(c2)OCO3)C1=O |  |  |  |  |  |  |  |  |  |  |  |  |  |  |  |  |  |  |  |  | IC50 (Alpha amylase): 10.26 µg/mL (≈ 33.4 µM); IC50 [1]: 10.78 µg/mL (≈ 35.1 µM)
CCOc1cc(/C=C2\SC(=O)N(Cc3cccc([N+](=O)[O-])c3)C2=O)ccc1O | Active | Active | Non-Toxic | Active | Active | Non-Toxic | Active | Active | Non-Toxic | 1324 | Active | Active | 10.2 | Active | 14.9 | Active | Active | 10.33 | 207 | Active | Activity (Rattus norvegicus [12]): Active; Activity [14]: Non-Toxic; Activity (Rattus norvegicus [15]): Active; Activity [16]: Non-Toxic; Activity [18]: Non-Toxic; Activity (Rattus norvegicus [19]): Active; Activity [21]: Non-Toxic; Activity (Rattus norvegicus [22]): Active; Activity [24]: Non-Toxic; Activity (Rattus norvegicus [25]): inactive; Activity (Rattus norvegicus [28]): Active; Activity [30]: Non-Toxic; Activity (Rattus norvegicus [31]): Active; Activity [33]: Toxic; Activity [34]: Non-Toxic; Activity (Rattus norvegicus [35]): Active
O=C1S/C(=C\c2ccc(Br)cc2)C(=O)N1Cc1cccc([N+](=O)[O-])c1 | Active |  | Non-Toxic | Active | Active | Non-Toxic | Active | Active | Non-Toxic | 1514 | Active | Active | 23.9 | Active | 23.3 | Active | Active | 20.02 | 62.2 | Active | Activity (Rattus norvegicus [36]): Active; Activity (Rattus norvegicus [12]): Active; Activity [14]: Non-Toxic; Activity [16]: Non-Toxic; Activity [37]: Non-Toxic; Activity [18]: Non-Toxic; Activity (Rattus norvegicus [19]): Active; Activity [21]: Non-Toxic; Activity (Rattus norvegicus [22]): Active; Activity [24]: Non-Toxic; Activity (Rattus norvegicus [25]): inactive; Activity (Rattus norvegicus [28]): Active; Activity (Rattus norvegicus [31]): Active; Activity [33]: Toxic; Activity [34]: Non-Toxic; Activity (Rattus norvegicus [35]): Active
O=C1S/C(=C\c2ccc(Cl)cc2Cl)C(=O)N1Cc1cccc([N+](=O)[O-])c1 |  | Active | Non-Toxic | inactive |  | Non-Toxic |  | Active |  | 1474 | Active | Active | 24.1 | inactive | 23.2 | Active | Active | 20.94 | 152 | Active | Activity (Rattus norvegicus [38]): Active; Activity (Rattus norvegicus [15]): Active; Activity (Rattus norvegicus [39]): Active; Activity (Rattus norvegicus [40]): Active; Activity [30]: Non-Toxic

From ChEMBL document CHEMBL5543083, “3,5-Disubstituted-thiazolidine-2,4-dione hybrids as antidiabetic agents: Design, synthesis, in-vitro and In vivo evaluation” (Eur J Med Chem, 2024)
